Source: patent US5773236A, “Assay for glutathiane transferase using polyhaloaryl-substituted reporter molecules” (Molecule Probes, Inc., priority 1997, dated 1998)

Columns and labels:
Format in all cases: cell-based
CRE BAG 2 cells = experiment: Marker gene expression by flow cytometry, CRE BAG 2 (Example 62); conditions: 0.2 mM dye, 37° C., 30 minutes
Protocol: NIH-3T3 and CRE BAG2 cells are maintained as in Example 61. A 10 mM stock solution of (((3 -(2-pentafluorobenzoyl)amino)ethyl)amino)carbonyl)-umbelliferyl β-D-galactopyranoside (Compound 37; Example 37) is prepared in DMF. A 10 mM stock solution of 4-chloromethylcoumarin β-D-galactopyranoside (CMCG; Molecular Probes #D-2921) is prepared in a 1:1 mixture of DMSO and water. NIH-3T3 and CRE BAG2 cells are trypsinized, washed with phosphate buffered saline (PBS), pH 7.2 and resuspended in D-MEM with 10% BCS. To separate 1 mL cell suspensions are added the dye stock solutions to obtain final concentrations of 0.2 mM dye. Incubation is carried out at 37° C. for 30 minutes. Cells are centrifuged to form a pellet, the supernatant is discarded and the cells are washed twice with PBS, pH 7.2 and suspended in the same buffer. Cells are analyzed by flow cytometry using a Becton-Dickinson FACS Vantage flow cytometer. […] However, CRE BAG 2 cells stained with the Compound 37 show fluorescence that is greater than 25-fold that shown by autofluorescent control cells. For the CRE BAG 2 cells stained with CMCG, the fluorescence intensity is only 8-fold greater than that of the autofluorescent control cells.

[1] = test system: Bovine pulmonary aorta endothelial cells (BPAEC); experiment: Glutathione adduct formation and fate of substrate in cultured animal cells, HPLC (Example 66)
Protocol: The solutions are mixed overnight with three volumes of ethyl acetate followed by centrifugation at 15,000×g for 30 min to separate the organic and aqueous layers. HPLC analysis using a Rainin HPLC equipped with a C18, 5 μm, 100 Å, 4.6×250 mm MICROSORB-MV reverse phase column. […] Products are detected by reading the absorbance at 500 nm.
Bovine pulmonary aorta endothelial cells (BPAEC) are removed from flasks by trypsinization and washed into fresh complete growth medium to yield 10^6 cells/mL. […] Other aliquots of the cell suspension are loaded with the same substrates for 1 hour, rinsed into fresh complete medium, then incubated in the absence of substrate for an additional 3 hr at 37° C. to look for retention and efflux of fluorescent products. At the end of each incubation period the cells are removed by centrifugation and the supernate is retained. The cell pellets are resuspended in 1 mL of E-Pure water and subjected to three freeze-thaw cycles (-80° C. to 37° C.).

[2] = test system: Bovine pulmonary aorta endothelial cells (BPAEC); experiment: Retention of fluorescence in fixed cells (Example 66); conditions: 3.7% formaldehyde 30 minutes, 0.2% Triton X-100 30 minutes
[3] = 15 min, 5 μM substrate, continuous
[4] = 1 hr, washed, then additional 3 hr at 37° C.
[5] = 4 hrs, 5 μM substrate, continuous

SMILES | fluorescence relative to autofluorescent control cells (CRE BAG 2 cells) [fold] | GSH adduct formation in cells ([1]; 5 μM substrate, 37° C., HPLC) | EXTRACELLULAR Free dye [1, 3] | EXTRACELLULAR Free dye, fraction of total fluorescence [1, 3] [%] | INTRACELLULAR Free dye [1, 3] | INTRACELLULAR Free dye, fraction of total fluorescence [1, 3] [%] | EXTRACELLULAR Free dye [1, 4] | EXTRACELLULAR Free dye, fraction of total fluorescence [1, 4] [%] | EXTRACELLULAR Free dye [1, 5] | EXTRACELLULAR Free dye, fraction of total fluorescence [1, 5] [%] | INTRACELLULAR Free dye [1, 5] | INTRACELLULAR Free dye, fraction of total fluorescence [1, 5] [%] | hydrolysis product detectable in washed cells ([1]; washed at one hour then incubated additional 3 hours) | fluorescence after fixation and permeabilization [2]
O=c1cc(CCl)c2ccc(O[C@@H]3O[C@H](CO)[C@H](O)[C@H](O)[C@H]3O)cc2o1 [CMCG, 4-chloromethylcoumarin β-D-galactopyranoside, reference compound] | 8 |  |  |  |  |  |  |  |  |  |  |  |  | 
CC(=O)Oc1ccc2c(c1)Oc1cc(OC(C)=O)ccc1C21OC(=O)c2cc(NC(=O)c3ccccc3)ccc21 [Compound 5, 5-(benzoylamino)fluorescein diacetate] |  | does not | 4829 relative fluorescence units | 91.5 | 450 relative fluorescence units | 8.5 | 469 relative fluorescence units | 100 | 8627 relative fluorescence units | 99.1 | 78 relative fluorescence units | 0.9 | not detectable | essentially nonfluorescent
